Measurements reported in ChEMBL document CHEMBL1129576, “Nucleosides and nucleotides. 158. 1-(3-C-ethynyl-beta-D-ribo-pentofuranosyl)-cytosine, 1-(3-C-ethynyl-beta-D-ribo-pentofuranosyl)uracil, and their nucleobase analogues as new potential multifunctional antitumor nucleosides with a broad spectrum of activity” (J Med Chem, 1996).

Legend:
L1210 = assay: In vitro tumor cell growth inhibitory activity against mouse leukemia L1210 cell lines.; type: functional, cell-based
KB = assay: In vitro tumor cell growth inhibitory activity against human nasopharyngeal KB cell lines; type: functional, cell-based

Row | Structure (SMILES) | IC50 (L1210) | IC50 (KB)
1 | C#CC1(O)[C@@H](CO)O[C@@H](n2cnc3c(O)nc(N)nc32)[C@@H]1O (single isomer, unassigned) | > 300000 nM | > 300000 nM
2 | C#C[C@@]1(O)[C@@H](CO)O[C@@H](n2cc(C)c(=O)[nH]c2=O)[C@@H]1O | > 300000 nM | > 300000 nM
3 | C#CC1(O)[C@@H](CO)O[C@@H](n2cc(F)c(=O)[nH]c2=O)[C@@H]1O (single isomer, unassigned) | 2500 nM | 1400 nM
4 | C#C[C@@]1(O)[C@@H](CO)O[C@@H](n2cnc3c(N)ncnc32)[C@@H]1O | 690 nM | 830 nM
